This note sets out measurements from patent US12077503B2, “Substituted cyclic amides and their use as herbicides” (FMC CORPORATION, priority 2015, dated 2024).

Holding throughout (type): in vivo
The test system of test [1] is ryegrass, Italian (Italian ryegrass, Lolium multiflorum). In words: Test A preemergence. As to conditions: Lolium multiflorum, pre-emergence, 240 h, preemergence, 0 to 100 scale where 0 is no effect and 100 is complete control, read-out: Ryegrass, Italian plant response rating; for pest or weed control at 125 g/ha: 125 g ai/ha, visual injury rating, approximately 10 d; for pest or weed control at 500 g/ha: 500 g ai/ha. An outline of the steps:
(§1)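 Greenhouse, ~10 d after spray; visual injury vs untreated controls, 0 = no effect, 100 = complete control. Preemergence: directed soil spray over planted seeds. Postemergence: plants 2–10 cm, 1–2 leaf stage. Loam/sand blend. Compound in non-phytotoxic solvent with surfactant.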

In the next test the test system is rice (Oryra sativa). Kind of test: Test B flooded paddy test. Conditions: Oryza sativa, 250 g ai/ha, Flood; 0 to 100 scale where 0 is no effect and 100 is complete control; read-out: Rice plant response rating. An outline of the steps: (§2)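 Greenhouse paddy pots with 2-leaf stage plants received compound by direct addition to floodwater 3 cm deep, kept at that level. Scored visually at 13–15 d versus controls (0 no effect; 100 complete control).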

Test [2] has as its system sedge, umbrella (small-flower umbrella sedge, Cyperus difformis). Kind of test: Test B flooded paddy test. As to conditions: Cyperus difformis, 250 g ai/ha, Flood; 0 to 100 scale where 0 is no effect and 100 is complete control; read-out: Sedge, Umbrella plant response rating. In a few lines:
as §2

Test [3] concerns ducksalad (Heteranthera limosa). In words: Test B flooded paddy test. Conditions: Heteranthera limosa, 250 g ai/ha, Flood; 0 to 100 scale where 0 is no effect and 100 is complete control; read-out: Ducksalad plant response rating. An outline of the steps: as §2
Test [4] relates to barnyardgrass (Echinochloa crus-galli). Kind of test: Test B flooded paddy test. As to conditions: Echinochloa crus-galli, 250 g ai/ha, Flood; 0 to 100 scale where 0 is no effect and 100 is complete control; read-out: Barnyardgrass plant response rating. An outline of the steps: as §2
The subject of test [5] is blackgrass (Alopecurus myosuroides). In words: Test A postemergence. Conditions: Alopecurus myosuroides, post-emergence, 240 h, postemergence; for pest or weed control at 125 g/ha: 125 g ai/ha, visual injury vs untreated controls after approx. 10 d, 0 = no effect, 100 = complete control, read-out: Blackgrass plant response rating (0 to 100 scale); for pest or weed control at 500 g/ha: 500 g ai/ha, 0 to 100 scale, 0 is no effect, 100 is complete control, read-out: Blackgrass plant response rating. In a few lines: as §1

The test system of test [6] is Galium (catchweed bedstraw, Galium aparine). In words: Test A postemergence. Conditions: Galium, post-emergence, 240 h, postemergence; for pest or weed control at 125 g/ha: 125 g ai/ha, visual injury vs untreated controls after approx. 10 d, 0 = no effect, 100 = complete control, read-out: Galium plant response rating (0 to 100 scale); for pest or weed control at 500 g/ha: 500 g ai/ha, 0 to 100 scale, 0 is no effect, 100 is complete control, read-out: Galium plant response rating. In a few lines:
as §1

Test [7] has as its system ragweed (common ragweed, Ambrosia elatior). In words: Test A postemergence. As to conditions: Ambrosia artemisiifolia, post-emergence, 240 h, postemergence; for pest or weed control at 125 g/ha: 125 g ai/ha, visual injury vs untreated controls after approx. 10 d, 0 = no effect, 100 = complete control, read-out: Ragweed plant response rating (0 to 100 scale); for pest or weed control at 500 g/ha: 500 g ai/ha, 0 to 100 scale, 0 is no effect, 100 is complete control, read-out: Ragweed plant response rating. In a few lines: as §1

Another test relates to Kochia (Kochia scoparia). In words: Test A postemergence. Conditions: Bassia scoparia, post-emergence, 240 h, postemergence; for pest or weed control at 125 g/ha: 125 g ai/ha, visual injury vs untreated controls after approx. 10 d, 0 = no effect, 100 = complete control, read-out: Kochia plant response rating (0 to 100 scale); for pest or weed control at 500 g/ha: 500 g ai/ha, 0 to 100 scale, 0 is no effect, 100 is complete control, read-out: Kochia plant response rating. In a few lines:
as §1

Test [8] deals with giant foxtail (Setaria faberii). Kind of test: Test A postemergence. As to conditions: Setaria faberi, post-emergence, 240 h, postemergence; for pest or weed control at 125 g/ha: 125 g ai/ha, visual injury vs untreated controls after approx. 10 d, 0 = no effect, 100 = complete control, read-out: Foxtail, Giant plant response rating (0 to 100 scale); for pest or weed control at 500 g/ha: 500 g ai/ha, 0 to 100 scale, 0 is no effect, 100 is complete control, read-out: Foxtail, Giant plant response rating. In a few lines: as §1

Test [9] relates to pigweed (Amaranthus retroflexus). In words: Test A postemergence. As to conditions: Amaranthus retroflexus, post-emergence, 240 h, postemergence; for pest or weed control at 125 g/ha: 125 g ai/ha, visual injury vs untreated controls after approx. 10 d, 0 = no effect, 100 = complete control, read-out: Pigweed plant response rating (0 to 100 scale); for pest or weed control at 500 g/ha: 500 g ai/ha, 0 to 100 scale, 0 is no effect, 100 is complete control, read-out: Pigweed plant response rating. In a few lines: as §1

Test [10] has as its system ryegrass, Italian (Italian ryegrass, Lolium multiflorum). In words: Test A postemergence. As to conditions: Lolium multiflorum, post-emergence, 240 h, postemergence; for pest or weed control at 125 g/ha: 125 g ai/ha, visual injury vs untreated controls after approx. 10 d, 0 = no effect, 100 = complete control, read-out: Ryegrass, Italian plant response rating (0 to 100 scale); for pest or weed control at 500 g/ha: 500 g ai/ha, 0 to 100 scale, 0 is no effect, 100 is complete control, read-out: Ryegrass, Italian plant response rating. In a few lines: as §1

A further test deals with corn (Zea mays). In words: Test A postemergence. Conditions: Zea mays, post-emergence, 240 h, postemergence; for plant injury at 125 g/ha: 125 g ai/ha, visual injury vs untreated controls after approx. 10 d, 0 = no effect, 100 = complete control, read-out: Corn plant response rating (0 to 100 scale); for plant injury at 500 g/ha: 500 g ai/ha, 0 to 100 scale, 0 is no effect, 100 is complete control, read-out: Corn plant response rating. In a few lines: as §1

Test [11] deals with wheat (Triticum aestivum). In words: Test A postemergence. As to conditions: Triticum aestivum, post-emergence, 240 h, postemergence; for plant injury at 125 g/ha: 125 g ai/ha, visual injury vs untreated controls after approx. 10 d, 0 = no effect, 100 = complete control, read-out: Wheat plant response rating (0 to 100 scale); for plant injury at 500 g/ha: 500 g ai/ha, 0 to 100 scale, 0 is no effect, 100 is complete control, read-out: Wheat plant response rating. An outline of the steps:
as §1

Take `COc1cc(C(F)(F)F)ccc1[C@H]1CNC(=O)[C@@H]1C(=O)Nc1cccc(F)c1F` [Compound 1203]: the pest or weed control at 125 g/ha worked out at 0% in [1]; 20% in test [5]; 50% in [6]; 20% in test [7]; 40% with Kochia (Kochia scoparia); 90% in test [8]. In addition, the pest or weed control at 125 g/ha in test [9] and in test [10] was 0% in each case. Besides, the pest or weed control at 500 g/ha in test [1] was determined as 20%; in [5], 60%; in [6], 60%; in test [7] it was 30%; in the test on Kochia (Kochia scoparia) it was 60%; in test [8], 90%. In addition, the pest or weed control at 500 g/ha in [9] was found to be 20%; in test [10], 0%. The pest or weed control at 250 g/ha in the test with rice (Oryra sativa) came out at 0%; in test [2] it was 0%; in [3], 100%; in test [4], 30%. Further, the plant injury at 125 g/ha was 40% in the test with corn (Zea mays) and 0% in [11]. Moreover, the plant injury at 500 g/ha in the test with corn (Zea mays) is 70%; in test [11] it was 50%.

With `COc1ccc([C@H]2CN(C)C(=O)[C@@H]2C(=O)Nc2ccccc2SC)c(OC)c1` [Compound 1216], the pest or weed control at 125 g/ha in test [1] worked out at 0%; in [5], 0%; in test [6], 0%; in [7] it was 0%; in the test on Kochia (Kochia scoparia), 0%; in test [8], 20%. Further, the pest or weed control at 125 g/ha in test [9] and in [10] was 0% in each case. For the same compound, the pest or weed control at 500 g/ha turned out to be 0% in test [1]; 0% in [5]; 0% in test [6]; 0% in test [7]; 40% in the test on Kochia (Kochia scoparia); 80% in test [8]. Also, the pest or weed control at 500 g/ha in test [9] and in test [10] was 0% in each case. Further, the pest or weed control at 250 g/ha (in the test on rice (Oryra sativa); in test [2]; in test [3]; in test [4]) was 0% in each case. Moreover, the plant injury at 125 g/ha (in the test with corn (Zea mays); in test [11]) was 0% each time. Further, the plant injury at 500 g/ha (in the test with corn (Zea mays); in test [11]) was 0% in each case.

In the case of `COc1cc([C@H]2CN(C)C(=O)[C@@H]2C(=O)Nc2ccccc2SC)cc(OC)c1OC` [Compound 1218], the pest or weed control at 125 g/ha (in test [1]; in test [5]; in test [6]; in test [7]; in the test with Kochia (Kochia scoparia); in test [8]) was 0% each time. Moreover, the pest or weed control at 125 g/ha in test [9] and in [10] was 0% throughout. In addition, the pest or weed control at 500 g/ha in [1] stood at 0%; in test [5] it was 0%; in test [6] it was 0%; in test [7], 0%; in the test on Kochia (Kochia scoparia), 20%; in [8] it was 50%. Moreover, the pest or weed control at 500 g/ha in [9] and in [10] was 0% each time. Besides, the pest or weed control at 250 g/ha with rice (Oryra sativa) is 0%; in test [2], 0%; in test [3] it was 40%; in test [4], 0%. For the same compound, the plant injury at 125 g/ha (in the test on corn (Zea mays); in test [11]) was 0% throughout. Moreover, the plant injury at 500 g/ha (in the test on corn (Zea mays); in test [11]) was 0% throughout.
